Tests used:
[1] = target: T1, PAD1 (Homo sapiens, UniProt Q9ULC6); assay: Histone H3 citrullination in HEK293TPAD1 cells; format: cell-based; settings: 1 mM CaCl2, 5 μM ionomycin, 3 h, read-out: EC50 of inhibition of histone H3 citrullination
T1 construct: made in house
T1 sequence (Q9ULC6 1-663): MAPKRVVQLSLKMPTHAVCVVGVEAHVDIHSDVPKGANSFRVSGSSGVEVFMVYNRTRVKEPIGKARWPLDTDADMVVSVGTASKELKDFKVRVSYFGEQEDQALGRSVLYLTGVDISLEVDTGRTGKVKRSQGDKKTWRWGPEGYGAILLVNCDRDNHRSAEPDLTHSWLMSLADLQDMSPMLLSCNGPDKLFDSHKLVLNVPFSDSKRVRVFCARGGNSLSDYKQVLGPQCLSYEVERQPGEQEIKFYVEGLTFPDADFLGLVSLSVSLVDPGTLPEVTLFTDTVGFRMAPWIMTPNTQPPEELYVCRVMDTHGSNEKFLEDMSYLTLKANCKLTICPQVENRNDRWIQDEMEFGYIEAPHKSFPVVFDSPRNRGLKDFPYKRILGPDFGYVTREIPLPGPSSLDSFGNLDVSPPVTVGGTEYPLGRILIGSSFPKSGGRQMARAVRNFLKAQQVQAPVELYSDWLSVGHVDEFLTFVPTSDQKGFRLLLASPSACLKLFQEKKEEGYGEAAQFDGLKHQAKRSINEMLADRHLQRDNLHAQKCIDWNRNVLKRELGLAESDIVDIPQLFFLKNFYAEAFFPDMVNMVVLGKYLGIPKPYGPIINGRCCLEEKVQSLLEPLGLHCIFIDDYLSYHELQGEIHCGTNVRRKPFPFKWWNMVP
Method: The final concentration of DMSO in each well was 1%. […] All the experiments were performed at least in duplicate.

[2] = tested on: HEK293TPAD1 cells; assay: Cytotoxicity studies (XTT) in HEK293TPAD1 cells; format: cell-based, human; settings: cytotoxicity EC50 (XTT, 24 h) over EC50 for histone H3 citrullination
Method: Cytotoxicity Studies. HEK293TPAD1 cells were seeded (2×10^4 cells/well) on 96-well plate and were allowed to grow in DMEM (supplemented with 10% heat-inactivated fetal bovine serum, 100 units/mL penicillin, 100 μg/mL streptomycin and 0.15 mg/mL hygromycin B) for 24 h. Cells were then treated with DMSO or various concentrations of inhibitor at 37° C. for 24 h. Activated XTT reagent (ATCC) was added to each well and cells were further incubated at 37° C. for 5 h. Cell viability was measured by recording the absorbance at 475 nm and 660 nm. Equation 3, Y=Bottom+(Top−Bottom)/[1+10^((logEC50-X)*Hillslope)] (3), was used to fit an eight-point dose-response curve to determine the EC50 values for inhibition of cell-proliferation using GraphPad Prism 7.03. Top and Bottom are plateaus of the dose-response curve, X is the log of inhibitor-concentration, Hillslope is the slope factor or Hill slope. All the experiments were performed at least in triplicate.

[3] = target: T2, PAD1 (Mus musculus, UniProt Q9Z185); assay: Histone H3 citrullination in mouse embryos (immunofluorescence, confocal microscopy); format: cell-based; settings: mouse embryos at the 4-cell stage, 100 μM inhibitor
T2 construct: endogenously expressed cellular PAD1 in mouse zygotes; endogenous in cells; host or cells: ICR mouse zygotes / 4-cell embryos from in vitro fertilization
T2 sequence (Q9Z185 1-662): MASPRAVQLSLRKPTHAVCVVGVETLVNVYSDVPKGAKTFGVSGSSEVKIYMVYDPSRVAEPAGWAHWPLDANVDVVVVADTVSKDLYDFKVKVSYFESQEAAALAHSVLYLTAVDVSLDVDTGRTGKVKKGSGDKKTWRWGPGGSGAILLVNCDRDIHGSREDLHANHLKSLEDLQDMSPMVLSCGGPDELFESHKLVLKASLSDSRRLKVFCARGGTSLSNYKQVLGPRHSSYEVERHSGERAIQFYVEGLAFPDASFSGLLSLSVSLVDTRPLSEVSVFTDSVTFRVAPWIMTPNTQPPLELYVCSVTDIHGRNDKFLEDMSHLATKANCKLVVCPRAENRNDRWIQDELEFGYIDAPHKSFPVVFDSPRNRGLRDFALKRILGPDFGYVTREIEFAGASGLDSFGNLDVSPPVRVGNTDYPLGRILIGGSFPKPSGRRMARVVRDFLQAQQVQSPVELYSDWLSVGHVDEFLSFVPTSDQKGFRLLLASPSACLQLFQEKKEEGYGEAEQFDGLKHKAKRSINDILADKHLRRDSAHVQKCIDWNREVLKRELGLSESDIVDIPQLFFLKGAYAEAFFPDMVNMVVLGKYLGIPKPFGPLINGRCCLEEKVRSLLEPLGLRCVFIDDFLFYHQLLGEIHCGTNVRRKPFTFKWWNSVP
Method: In Vitro Fertilization. Female ICR mice (4-6 weeks) were injected intraperitoneally with 10 international units (IU) of pregnant mare serum gonadotropin (PMSG) and after 46 h, 10 IU of human chorionicgonadotropin (hCG). After 16 h, cumulus masses were released from oviducts into HEPES-buffered HTF culture medium (HTF) (InVitro Care, Frederick, MD). Cauda epididymal mouse spermatozoa were released and placed in drops of HTF culture medium (InVitro Care). Then the sperm suspensions were added to the cumulus mass drops with a final concentration of approximately 1-3×10^5/mL. Zygotes were collected and transferred to KSOM medium containing 100 μM PAD1 inhibitor or equal volume of DMSO as a control. Then 4-cell and blastocyst stage embryos were collected after 48 and 100 h of culture, respectively.
Immunofluorescent and Confocal Microscopy. Embryos were fixed in 4% paraformaldehyde in PBS (pH 7.4) for 30 min and then permeabilized in 0.5% Triton X-100 for 30 min at room temperature. After blocking in 1% BSA/PBS at room temperature for 1 h, samples were incubated with anti-H3Cit2/8/17 antibody (Catalogue no. ab77164, Abcam) (1:100) at 4° C. for 12 h. After five washes, samples were incubated with FITC-conjugated secondary antibody for 1 h at room temperature. Nuclei were counterstained with DAPI for 5 min. […]

| SMILES | EC50 [1] | Efficacy Index (the ratio of cytotoxicity to EC50) [2] | Inhibition of histone H3 citrullination in embryos [3] |
| --- | --- | --- | --- |
| N=C(CF)NCCC[C@H](NC(=O)c1cc(I)cc(I)c1O)c1nc2ccccc2[nH]1 [Compound 1] | 14.5 µM | 17 | dramatically inhibit histone H3 citrullination |
| N=C(CF)NCCC[C@H](NC(=O)c1cc(I)c(F)c(I)c1O)c1nc2ccccc2[nH]1 [Compound 19] | 31.8 µM | 10 | dramatically inhibit histone H3 citrullination |

— patent publication US12448358B2, “Inhibitors of protein arginine deiminase 1 and methods of preparation and use thereof” (University of Massachusetts, priority 2019, dated 2025)
